Measurements reported in patent US10059703B2, “3-alkyl-5-fluoro-4-substituted-imino-3,4-dihydropyrimidin-2(1H)-one derivatives as fungicides” (Adama Makhteshim Ltd., priority 2012, dated 2018).
Like-named read-outs stand apart in the source and are kept apart here.

Legend:
Septoria tritici = test: Fungicidal activity: leaf blotch of wheat, one-day protectant and three-day curative tests on wheat plants; type: in vivo; conditions: Zymoseptoria tritici, 100 ppm, wheat plants (variety Yuma)
Description: Example 16: Evaluation of Fungicidal Activity: Leaf Blotch of Wheat (Mycosphaerella graminicola; anamorph: Septoria tritici; Bayer code SEPTTR)
Wheat plants (variety Yuma) were grown from seed in a greenhouse in 50% mineral soil/50% soil-less Metro mix until the first leaf was fully emerged, with 7-10 seedlings per pot. These plants were inoculated with an aqueous spore suspension of Septoria tritici either prior to or after fungicide treatments. After inoculation the plants were kept in 100% relative humidity (one day in a dark dew chamber followed by two to three days in a lighted dew chamber) to permit spores to germinate and infect the leaf. The plants were then transferred to a greenhouse for disease to develop.
(§1) The following tables present the activity of typical compounds of the present disclosure when evaluated in these experiments. The effectiveness of the test compounds in controlling disease was determined by assessing the severity of disease on treated plants, then converting the severity to percent control based on the level of disease on untreated, inoculated plants.
as §1, with “table presents” for “tables present”

[1] = 24 h, One-Day Protectant (1 DP), read-out: SEPTTR 100 PPM 1 DP (% Disease Control rating)
[2] = 72 h, Three-Day Curative (3 DC), read-out: SEPTTR 100 PPM 3 DC (% Disease Control rating)

Row | SMILES | pest or weed control at 100 ppm (Septoria tritici; [1]) [%] | pest or weed control at 100 ppm (Septoria tritici; [2]) [%] | melting point [°C]
1 | CC(=O)/N=c1\c(F)cn(S(=O)(=O)c2cc(Cl)sc2Cl)c(=O)n1C [Compound F36] | 76 to 100 | 51 to 75 | 154
2 | C/N=c1\c(F)cn(S(=O)(=O)c2cc(Cl)cc(Cl)c2)c(=O)n1C [Compound F20] | 26 to 50 | 0 to 25 | 135 to 136.9
3 | C/N=c1\c(F)cn(S(=O)(=O)c2ccsc2)c(=O)n1C [Compound F17] | 76 to 100 | 76 to 100 | 121.1 to 122.6
4 | C/N=c1\c(F)cn(S(=O)(=O)c2ccc(C)c(Cl)c2)c(=O)n1C [Compound F10] | 76 to 100 | 51 to 75 | 149.4 to 151
5 | COC(=O)/N=c1\c(F)cn(S(=O)(=O)c2ccc(OC)cc2)c(=O)n1C [Compound F27, methyl (5-fluoro-1-((4-methoxyphenyl)sulfonyl)-3-methyl-2-oxo-2,3-dihydropyrimidin-4(1H)-ylidene)carbamate] | 0 to 25 | 0 to 25 | 124 to 125
6 | Cc1ccc(S(=O)(=O)n2cc(F)/c(=N/C(=O)C(C)C)n(COC(=O)C(C)C)c2=O)cc1 [Compound F25, Z)-(5-fluoro-6-(isobutyrylimino)-2-oxo-3-tosyl-2,3-dihydropyrimidin-1(6H)-yl)methyl isobutyrate] | 0 to 25 | 76 to 100 | –
7 | CC(=O)/N=c1\c(F)cn(S(=O)(=O)c2ccccc2)c(=O)n1C [Compound F30] | 76 to 100 | 76 to 100 | 174
8 | C/N=c1\c(F)cn(S(=O)(=O)c2ccc(C)cc2)c(=O)n1C [Compound F3] | 76 to 100 | 51 to 75 | 117 to 123
9 | [2H]C([2H])([2H])/N=c1\c(F)cn(S(=O)(=O)c2ccc(OC)cc2)c(=O)n1C([2H])([2H])[2H] [Compound F63, 5-fluoro-1-((4-methoxyphenyl)sulfonyl)-3-trideuteriomethyl-4-(trideuteriomethylimino)-3,4-dihydropyrimidin-2(1H)-one] | 0 to 25 | 0 to 25 | –
10 | C/N=c1\c(F)cn(S(=O)(=O)c2sc(C)nc2C)c(=O)n1C [Compound F23] | 26 to 50 | 76 to 100 | –
11 | [2H]C([2H])([2H])/N=c1\c(F)cn(S(=O)(=O)c2ccc(C)cc2)c(=O)n1C([2H])([2H])[2H] [Compound F62, 5-fluoro-1-((4-methylphenyl)sulfonyl)-3-trideuteriomethyl-4-(trideuteriomethylimino)-3,4-dihydropyrimidin-2(1H)-one] | 0 to 25 | 0 to 25 | –
12 | [2H]C([2H])([2H])/N=c1\c(F)cn(S(=O)(=O)c2ccccc2)c(=O)n1C([2H])([2H])[2H] [Compound F61, 5-fluoro-1-(phenylsulfonyl)-3-trideuteriomethyl-4-(trideuteriomethylimino)-3,4-dihydropyrimidin-2(1H)-one] | 0 to 25 | 0 to 25 | –
13 | C/N=c1\c(F)cn(S(=O)(=O)c2ccc(F)cc2Cl)c(=O)n1C [Compound F21] | – | – | 109 to 112
14 | COc1ccc(S(=O)(=O)n2cc(F)/c(=N\C(C)=O)n(C)c2=O)cc1 [Compound F31, N-(5-fluoro-1-((4-methoxyphenyl)sulfonyl)-3-methyl-2-oxo-2,3-dihydropyrimidin-4(1H)-ylidene)acetamide] | 76 to 100 | 76 to 100 | –
15 | COc1ccc(S(=O)(=O)n2cc(F)/c(=N/C(C)=O)n(C)c2=O)cc1 [Compound F26] | 76 to 100 | 76 to 100 | –
16 | C/N=c1\c(F)cn(S(=O)(=O)c2cc(C)c(Cl)cc2C)c(=O)n1C [Compound F22] | 76 to 100 | 76 to 100 | –
